Where a name gives a salt, the structure may show the parent alone.
Key:
[1] = biological target: T1, immobilized penicillin G acylase from E. coli (Escherichia coli, UniProt P06875); assay: Enzymatic amoxicillin synthesis with immobilized Pen G acylase and various enzyme modulators (Example 8); type: biochemical; details: standard synthesis conditions; enzyme 13 U/ml
Excerpt: (§1) The ratio X is defined as the number of moles of D-HPGA consumed per mole of Amox produced. For practical use this can be transformed to X=1+moles D-HPG/moles Amox, wherein "moles D-HPG" is the molar amount of D-HPG produced by hydrolysis of the acylating agent and the desired product and "moles Amox" is the molar amount of Amox present in the reaction mixture. Thus, if X is 1 this means that only the desired synthesis takes place, no hydrolysis. If X is 2, this means that D-HPG and Amox are formed in equal amounts (on a molar basis). If X is 3, this means that twice as much D-HPG as Amox is present in the reaction mixture (on a molar basis). The ratio X can be calculated at any time during reaction, but in the following examples X is calculated at the reaction stop time, which is defined as the time at which 90 % of the theoretical yield of Amox is present in the reaction mixture (based on the inserted amount of 6-APA). Square brackets are used to designate molar concentrations.
(§2) In Examples 1-8 the following standard conditions for enzymatic amoxicillin synthesis have been used (see patent application No. WO 92/01061 for further details):
(§3) During the reactions, the pH value of the reaction mixtures was kept constant by titration with 2M sulphuric acid.
(§4) Representative samples of the reaction mixtures including solid constituents were taken at regular intervals during the reactions and analyzed by HPLC.
The compounds listed below improve synthesis performance (standard synthesis conditions, immobilized penicillin G acylase from E. coli; enzyme dosing 13 U/ml) in the sense that when they are present in the reaction mixture in a concentration within the interval specified, synthesis of the desired β-lactam antibiotic is favoured as compared to hydrolysis of the acylating agent: […]

[2] = biological target: T1, immobilized penicillin G acylase from E. coli; assay: Enzymatic amoxicillin synthesis with immobilized Pen G acylase, L-(+)-mandelic acid varied (Example 6); type: biochemical; details: enzyme 12.0 U/ml
Excerpt: (§5) V0 (Amox) is the initial velocity of Amox formation, and V0 (D-HPG) is the initial velocity of D-HPG formation, specified as μmoles/min/g enzyme, μmoles/min/ml reaction mixture, or nmoles/min/U (enzyme activity).
as §1, §2, §3, §4
A standard synthesis (immobilized penicillin G acylase from E. coli; enzyme dosing 12.0 U/ml) was carried out with no L-(+)-mandelic acid added.
Same conditions as in Experiment A were employed, except that L-(+)-mandelic acid was added to the reaction mixture at the beginning of the experiment in amounts as specified in Table 6. A side product obtained was α-hydroxybenzylpenicillin.

[3] = biological target: T1, immobilized penicillin G acylase from E. coli; assay: Enzymatic amoxicillin synthesis with immobilized Pen G acylase, Phox concentration varied (Example 1); type: biochemical; details: enzyme 8.6 U/ml
Excerpt: as §5, §1, §3, §4

[4] = biological target: T2, agarose based penicillin G acylase immobilizate (Escherichia coli, UniProt P06875); assay: Enzymatic amoxicillin synthesis with varying enzyme amounts and constant Phox (Example 4); type: biochemical; details: [Phox] 31 μM
T2 construct: processed alpha/beta heterodimer cut from one precursor (signal and spacer peptides removed)
Excerpt: as §5, §1, §3, §4
An agarose based penicillin G acylase immobilizate was employed in the following experiments. The immobilizate which was kept in water was drained of excess water on a filter by applying suction for 1 min.

[5] = biological target: T1, immobilized penicillin G acylase from E. coli; assay: Enzymatic amoxicillin synthesis with immobilized Pen G acylase, Phyl concentration varied (Example 2); type: biochemical; details: [Phox] 2.6 μM, enzyme 8.6 U/ml
Excerpt: as §5, §1, §2, §3, §4
A standard synthesis (immobilized penicillin G acylase from E. coli; enzyme dosing 8.6 U/ml) was carried out with no Phyl added.
Same conditions as in Experiment A were employed, except that Phyl was added to the reaction mixture at the beginning of the experiment in amounts so that the concentrations specified in Table 2 were obtained.

[6] = biological target: T3, Boehringer Mannheim immobilized penicillin G acylase, experimental preparation (Escherichia coli, UniProt P06875); assay: Enzymatic amoxicillin synthesis with immobilized Pen G acylase, 2-thiopheneacetic acid varied (Example 7); type: biochemical; details: enzyme 12 U/ml
T3 construct: purchased Boehringer Mannheim (experimental preparation)
Excerpt: as §5, §1, §2, §3, §4
A standard synthesis (Boehringer Mannheim immobilized penicillin G acylase, experimental preparation; enzyme dosing 12 U/ml) was carried out with no 2-thiopheneacetic acid added.
Same conditions as in Experiment A were employed, except that 2-thiopheneacetic acid was added to the reaction mixture at the beginning of the experiment in amounts as specified in Table 7.

[7] = Solubility of acylating agent in aqueous system; type: physicochemical; details: aqueous system as used in the examples; dependent on salts, pH, temperature
Excerpt: The solubility of the acylating agent such as the D-phenylglycine or D-p-hydroxyphenylglycine derivative or originating from the D,L mixtures as described in EP-A-339751, will vary with the identity of the derivative and with the composition of the reaction medium. […] However, the solubility is very dependent on the salt components in the solution, as well as on the pH value and the temperature of the solution. In some embodiments of the process of this invention, the initial reaction mixture is a slurry containing undissolved acylating agent and/or amino β-lactam, which will dissolve partly or fully during the course of the reaction. The β-lactam antibiotic formed may precipitate during the reaction and, also, the hydrolysis products of the acylating agent such as D-phenylglycine and D-p-hydroxyphenylglycine, may precipitate.

[8] = Exp B, [L-(+)-Mandelic acid] 0.64 mM
[9] = Exp C, [L-(+)-Mandelic acid] 3.3 mM
[10] = Exp D, [L-(+)-Mandelic acid] 6.7 mM
[11] = Exp E, [L-(+)-Mandelic acid] 13.3 mM
[12] = Exp F, [L-(+)-Mandelic acid] 14.2 mM
[13] = Exp G, [L-(+)-Mandelic acid] 36.1 mM
[14] = Exp A, [Phox] 2.6 μM (residual, none added)
[15] = Exp B, [Thiopheneacetic acid] 0.03 mM
[16] = Exp C, [Thiopheneacetic acid] 0.3 mM

T2 sequence (P06875 290-846): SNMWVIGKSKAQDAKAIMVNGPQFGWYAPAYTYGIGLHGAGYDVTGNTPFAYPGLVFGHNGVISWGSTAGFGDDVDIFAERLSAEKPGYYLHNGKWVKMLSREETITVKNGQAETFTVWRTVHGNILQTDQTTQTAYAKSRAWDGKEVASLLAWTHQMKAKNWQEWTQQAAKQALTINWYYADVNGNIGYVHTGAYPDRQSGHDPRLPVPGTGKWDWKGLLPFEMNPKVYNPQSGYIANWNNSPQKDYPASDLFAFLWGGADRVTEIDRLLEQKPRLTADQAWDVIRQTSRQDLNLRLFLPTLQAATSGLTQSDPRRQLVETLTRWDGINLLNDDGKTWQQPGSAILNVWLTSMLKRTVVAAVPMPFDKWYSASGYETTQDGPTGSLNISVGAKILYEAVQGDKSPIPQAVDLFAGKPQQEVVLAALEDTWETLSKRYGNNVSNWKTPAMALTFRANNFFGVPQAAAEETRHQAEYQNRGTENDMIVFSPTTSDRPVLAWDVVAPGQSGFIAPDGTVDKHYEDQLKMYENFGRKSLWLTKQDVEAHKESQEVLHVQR
T2 sequence (P06875 27-235): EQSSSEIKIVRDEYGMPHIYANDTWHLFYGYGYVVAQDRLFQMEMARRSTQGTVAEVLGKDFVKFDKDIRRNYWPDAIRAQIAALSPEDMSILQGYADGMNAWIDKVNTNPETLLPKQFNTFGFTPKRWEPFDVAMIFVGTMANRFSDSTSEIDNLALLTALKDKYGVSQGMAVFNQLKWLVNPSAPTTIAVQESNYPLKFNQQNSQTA
T3 sequence (P06875 27-235): as above
T3 sequence (P06875 290-846): as the sequence (P06875 290-846) above
T1 sequence (P06875 27-235): as the sequence (P06875 27-235) above
T1 sequence (P06875 290-846): as the sequence (P06875 290-846) above

SMILES: O=[N+]([O-])c1ccc(O)c(CBr)c1 [2-Hydroxy-5-nitrobenzyl bromide]
- Concentration interval where improvement of ratio X is found [1]: 10 to 500 µM

SMILES: O=C(O)CSc1ccccc1 [(Phenylthio)acetic acid]
- Concentration interval where improvement of ratio X is found [1]: 2 to 1000 µM

SMILES: O=C(O)[C@@H](O)c1ccccc1 [L-(+)-Mandelic acid, L-(+)-mandelic acid]
- Initial velocity V0 (Amox) [2, 8]: 156 nmoles/min/U
- Initial velocity V0 (D-HPG) [2, 8]: 207 nmoles/min/U
- Reaction stop time [2, 8]: 2.4 h
- X at reaction stop time [2, 8]: 2.9
- Initial velocity V0 (Amox) [2, 9]: 137 nmoles/min/U
- Initial velocity V0 (D-HPG) [2, 9]: 174 nmoles/min/U
- Reaction stop time [2, 9]: 2.8 h
- X at reaction stop time [2, 9]: 2.8
- Initial velocity V0 (Amox) [2, 10]: 119 nmoles/min/U
- Initial velocity V0 (D-HPG) [2, 10]: 146 nmoles/min/U
- Reaction stop time [2, 10]: 3.0 h
- X at reaction stop time [2, 10]: 2.65
- Initial velocity V0 (Amox) [2, 11]: 89 nmoles/min/U
- Initial velocity V0 (D-HPG) [2, 11]: 110 nmoles/min/U
- Reaction stop time [2, 11]: 4.7 h
- X at reaction stop time [2, 11]: 2.65
- Initial velocity V0 (Amox) [2, 12]: 80 nmoles/min/U
- Initial velocity V0 (D-HPG) [2, 12]: 106 nmoles/min/U
- Reaction stop time [2, 12]: 4.2 h
- X at reaction stop time [2, 12]: 2.8
- Initial velocity V0 (Amox) [2, 13]: 49 nmoles/min/U
- Initial velocity V0 (D-HPG) [2, 13]: 68 nmoles/min/U
- Reaction stop time [2, 13]: 5.5 h
- X at reaction stop time [2, 13]: 2.8
- optimal concentration with respect to minimization of the ratio X ([2]; under the conditions chosen): 3.3 to 14.2 mM

SMILES: CC1(C)[C@H](C(=O)O)N2C(=O)[C@@H](NC(=O)Cc3ccccc3)[C@H]2[S+]1[O-] (stereo partly drawn) [Penicillin G sulfoxide]
- Concentration interval where improvement of ratio X is found [1]: 2 to 500 µM

SMILES: CC1(C)S[C@@H]2[C@H](NC(=O)Cc3ccccc3)C(=O)N2[C@H]1C(=O)O [Penicillin G]
- Concentration interval where improvement of ratio X is found [1]: 2 to 1000 µM

SMILES: CC1(C)S[C@@H]2[C@H](NC(=O)COc3ccccc3)C(=O)N2[C@H]1C(=O)O [Penicillin V]
- Concentration interval where improvement of ratio X is found [1]: 2-1000 μm

SMILES: O=S(=O)(F)Cc1ccccc1 [Phenylmethylsulfonyl fluoride]
- Concentration interval where improvement of ratio X is found [1]: 0.2 to 10 µM

SMILES: O=C(O)COc1ccccc1 [Phox, phenoxyacetic acid]
- Initial velocity V0 (Amox) [3, 14]: 17.7 µmol/min/g
- Initial velocity V0 (D-HPG) [3, 14]: 25.0 µmol/min/g
- Reaction stop time [3, 14]: 2.1 h
- X at reaction stop time [3, 14]: 2.9
- Initial velocity V0 (Amox) ([3]; Exp B, [Phox] 9.9 μM): 13.1 µmol/min/g
- Initial velocity V0 (D-HPG) ([3]; Exp B, [Phox] 9.9 μM): 16.5 µmol/min/g
- Reaction stop time ([3]; Exp B, [Phox] 9.9 μM): 3.3 h
- X at reaction stop time ([3]; Exp B, [Phox] 9.9 μM): 2.7
- Initial velocity V0 (Amox) ([3]; Exp C, [Phox] 16.8 μM): 11.9 µmol/min/g
- Initial velocity V0 (D-HPG) ([3]; Exp C, [Phox] 16.8 μM): 13.8 µmol/min/g
- Reaction stop time ([3]; Exp C, [Phox] 16.8 μM): 4.1 h
- X at reaction stop time ([3]; Exp C, [Phox] 16.8 μM): 2.55
- Initial velocity V0 (Amox) ([3]; Exp D, [Phox] 31.0 μM): 8.8 µmol/min/g
- Initial velocity V0 (D-HPG) ([3]; Exp D, [Phox] 31.0 μM): 8.8 µmol/min/g
- Reaction stop time ([3]; Exp D, [Phox] 31.0 μM): 5.7 h
- X at reaction stop time ([3]; Exp D, [Phox] 31.0 μM): 2.35
- Initial velocity V0 (Amox) ([3]; Exp E, [Phox] 61.7 μM): 6.5 µmol/min/g
- Initial velocity V0 (D-HPG) ([3]; Exp E, [Phox] 61.7 μM): 5.4 µmol/min/g
- Reaction stop time ([3]; Exp E, [Phox] 61.7 μM): 9.5 h
- Initial velocity V0 (Amox) ([4]; Exp A, enzyme dosage 11.9 U/ml): 1.17 µmol/min/mL
- X at stop time ([4]; Exp A, enzyme dosage 11.9 U/ml): 1.75
- Initial velocity V0 (Amox) ([4]; Exp B, enzyme dosage 23.8 U/ml): 2.97 µmol/min/mL
- Initial velocity V0 (D-HPG) ([4]; Exp B, enzyme dosage 23.8 U/ml): 1.85 µmol/min/mL
- Initial velocity V0 (D-HPG) ([4]; Exp C, enzyme dosage 47.5 U/ml): ca. 5.6 μmoles/min/ml
- X at stop time ([4]; Exp C, enzyme dosage 47.5 U/ml): ca. 2.0

SMILES: O=C(O)Cc1ccccc1 [Phyl, phenylacetic acid]
- Initial velocity V0 (Amox) ([5]; Exp B, [Phyl] 32.9 μM): 10.8 µmol/min/g
- Initial velocity V0 (D-HPG) ([5]; Exp B, [Phyl] 32.9 μM): 13.8 µmol/min/g
- Reaction stop time ([5]; Exp B, [Phyl] 32.9 μM): 4.2 h
- X at reaction stop time ([5]; Exp B, [Phyl] 32.9 μM): 2.7
- Initial velocity V0 (Amox) ([5]; Exp C, [Phyl] 63.3 μM): 8.1 µmol/min/g
- Initial velocity V0 (D-HPG) ([5]; Exp C, [Phyl] 63.3 μM): 8.8 µmol/min/g
- Reaction stop time ([5]; Exp C, [Phyl] 63.3 μM): 5.1 h
- X at reaction stop time ([5]; Exp C, [Phyl] 63.3 μM): 2.5
- Initial velocity V0 (Amox) ([5]; Exp D, [Phyl] 127 μM): 5.2 µmol/min/g
- Initial velocity V0 (D-HPG) ([5]; Exp D, [Phyl] 127 μM): 5.4 µmol/min/g
- Reaction stop time ([5]; Exp D, [Phyl] 127 μM): 5.8 h
- X at reaction stop time ([5]; Exp D, [Phyl] 127 μM): 2.2

SMILES: O=C(O)Cc1cccs1 [Thiopheneacetic acid, 2-thiopheneacetic acid]
- Initial velocity V0 (Amox) [6, 15]: 1.68 µmol/min/mL
- Initial velocity V0 (D-HPG) [6, 15]: 1.95 µmol/min/mL
- Reaction stop time [6, 15]: 2.3 h
- X at reaction stop time [6, 15]: 2.7
- Initial velocity V0 (Amox) [6, 16]: 0.15 µmol/min/mL
- Initial velocity V0 (D-HPG) [6, 16]: 0.058 µmol/min/mL
- Reaction stop time [6, 16]: 12 h
- X at reaction stop time [6, 16]: 1.6

SMILES: NC(=O)[C@H](N)c1ccccc1 [hydrochloride of D-phenylglycine amide, D-phenylglycine amide]
- solubility [7]: approximately 450 mM

SMILES: O=C(O)COc1ccc(O)cc1 [p-Hydroxyphenoxyacetic acid]
- Concentration interval where improvement of ratio X is found [1]: 2 to 500 µM

Reference: patent US5753458A, “Acylation method for penicillins and cephalosporins” (Gist-Brocades B.V., priority 1994, dated 1998)
